The values that follow come from patent publication US12522594B2, “2-heteroaryl-3-oxo-2,3-dihydropyridazine-4-carboxamides for the treatment of cancer” (Deutsches Krebsforschungszentrum, priority 2017, dated 2026).

In assay [1] the target is T1, AHR (Homo sapiens, UniProt P35869).
T1 sequence (P35869 11-848): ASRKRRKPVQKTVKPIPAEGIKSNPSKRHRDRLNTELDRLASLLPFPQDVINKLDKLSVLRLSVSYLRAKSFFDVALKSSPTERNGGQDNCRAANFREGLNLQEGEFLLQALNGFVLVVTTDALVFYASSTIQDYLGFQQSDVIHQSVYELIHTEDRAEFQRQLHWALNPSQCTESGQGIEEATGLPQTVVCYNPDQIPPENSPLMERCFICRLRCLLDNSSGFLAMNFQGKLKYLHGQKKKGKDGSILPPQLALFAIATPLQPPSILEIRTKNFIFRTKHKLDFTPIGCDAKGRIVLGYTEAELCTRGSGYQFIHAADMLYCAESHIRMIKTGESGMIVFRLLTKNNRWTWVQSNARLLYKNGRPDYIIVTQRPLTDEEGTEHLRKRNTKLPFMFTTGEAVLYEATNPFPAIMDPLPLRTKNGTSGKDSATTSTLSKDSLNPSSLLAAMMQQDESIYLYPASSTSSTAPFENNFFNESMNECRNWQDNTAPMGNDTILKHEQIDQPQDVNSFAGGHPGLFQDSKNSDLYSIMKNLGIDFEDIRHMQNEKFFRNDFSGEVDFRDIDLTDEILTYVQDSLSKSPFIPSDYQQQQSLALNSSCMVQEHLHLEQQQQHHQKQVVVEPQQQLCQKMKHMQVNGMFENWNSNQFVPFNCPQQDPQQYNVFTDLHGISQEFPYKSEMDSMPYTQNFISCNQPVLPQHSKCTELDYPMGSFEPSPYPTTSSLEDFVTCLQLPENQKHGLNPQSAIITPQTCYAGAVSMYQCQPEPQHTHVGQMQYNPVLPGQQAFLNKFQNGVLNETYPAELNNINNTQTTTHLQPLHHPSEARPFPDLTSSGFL
Description: In vitro assay 3: AHR-regulated CYP1A1 expression in human cell line (U937, qPCR, KA stimulation). In kind it is cell-based. The note with it: U937 cells, 200 uM KA, 6 hours, CYP1A1 expression by qPCR; read-out: Assay 3: Hum CYP1A1 Antagonism IC50. Summed up:
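U937 human monocytic cells were stimulated with 200 uM KA for 6 h, with or without compound at eight concentrations from 1 nM to 3 uM, in duplicate. CYP1A1 mRNA was quantified by Taqman qPCR as fold expression normalised to HPRT. Unstimulated cells served as negative control.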
(In general: In qPCR the cycle at which signal appears reflects the starting amount.)

Assay [2] deals with T1, AHR. Description: In vitro assay 2: agonism in human cell line (transactivation assay, U87 cells, DRE firefly luciferase reporter). To be noted: no kynurenic acid, 20 hours, read-out: Assay 2: AHR-luc Hum Agonism IC50. In kind it is cell-based. More on the design: host or cells: U87 glioblastoma cells, stably transfected with DRE firefly luciferase and renilla reporter constructs. Summed up:
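U87 glioblastoma cells with endogenous AHR, stably carrying DRE-driven firefly luciferase and constitutive renilla reporters. 300 uM kynurenic acid served as positive activation control; data normalized to positive and negative controls.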
Background: In a reporter assay the amount or activity of a reporter protein is the signal.

Assay [3] deals with T1, AHR. The experiment in a line: In vitro assay 1: antagonism in human cell line (transactivation assay, U87 cells prestimulated with kynurenic acid, DRE firefly luciferase reporter). More on the design: host or cells: U87 glioblastoma cells, stably transfected with DRE firefly luciferase and renilla reporter constructs. The format is cell-based. The note with it: 150 uM kynurenic acid, 20 hours, read-out: Assay 1: AHR-luc Hum Antagonism IC50. Summed up:
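U87 glioblastoma cells with endogenous AHR, stably carrying a DRE-driven firefly luciferase reporter and a constitutive renilla reporter. Cells prestimulated with the AHR agonist kynurenic acid before compound addition; data normalized to positive and negative controls.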

In assay [4] the test system is B16F10-OVA cells. The experiment in a line: In vivo assay: efficacy of an example compound and a CTLA4 axis antagonist, B16F10-OVA tumor in C57/BL6J mice. Also on record: species or system mouse. The note with it: tumor volume treatment/control; single agent plus vehicle or isotype; AhR antagonist 30 mg/kg QD p.o.; aCTLA4 1 mg/kg q3d i.p. The method, then:
In Vivo Assay: Efficacy of Compositions Comprising an Example Compound and a CTLA4 Axis Antagonist
Animals are ordered from Charles River Sulzfeld, Germany and assigned to the study at the age of 8 weeks. Animal husbandry, feeding and health conditions are according to animal welfare guidelines. B16F10-OVA cells are B16F10 mouse melanoma cells that were virally transduced to express ovalbumin. B16F10-OVA cells were cultivated with RPMI 1640 with 10% FCS+2.5 μg/ml blasticidin and splitted at least 3 times before inoculation. The antibiotic blasticidin is removed 1 passage before inoculation. Female C57/BL6J mice were inoculated with 10000 B16F10-OVA tumor cells in 50% medium/50% matrigel subcutaneously in the flank. After 7 days the animals were randomized and therapeutic treatment started on day 8. The AhR antagonists were dissolved in Ethanol/Solutol/Water (10/40/50) and given at 30 mg/kg, QD, p.o. The anti-CTLA4 antibody was dosed at 1 mg/kg, q3d, i.p. The anti-CTLA4 antibody is mouse-specific with syrian hamster IgG1 isotype (Clone: 9H10 (anti mouse CTLA4), Fa. BioXCell BE0131). […]
Tumor size was measured using calipers determining length (a) and width (b). Tumor volume was calculated according to: […]
Based on tumor volume efficacy was calculated dividing tumor volume of the respective treatment group by tumor volume of the control group (T/C).

Assay [5] relates to B16F10-OVA cells. Description: In vivo assay: efficacy of an example compound and a PD-1/-L1 axis antagonist, B16F10-OVA tumor in C57/BL6N mice. More on the design: species or system mouse. To be noted: tumor volume treatment/control; single agent plus vehicle or isotype; AhR antagonist 30 mg/kg QD p.o.; aPDL1 (TPP-3911) 10 mg/kg q3d i.p.
Description: In Vivo Assay: Efficacy of Compositions Comprising an Example Compound and a PD-1/-L1 Axis Antagonist
Animals are ordered from Charles River Sulzfeld, Germany and assigned to the study at the age of 7 weeks. Animal husbandry, feeding and health conditions are according to animal welfare guidelines. B16F10-OVA cells are B16F10 mouse melanoma cells that were virally transduced to express ovalbumin. […] The antibiotic blasticidin is removed 1 passage before inoculation. Female C57/BL6N mice were inoculated with 100000 B16F100VA tumor cells in 50% medium/50% matrigel subcutaneously in the flank. After 5 days the animals were randomized and therapeutic treatment started.
The anti-PDL1 antibody is a chimera of the variable domain of atezolizumab with murine IgG1 CH1, 2 and 3 domains.
The subject of the next assay is human monocytes. Description: In vitro assay 4: rescue of TNFα production from human primary monocytes (LPS + KA). To be noted: one value per donor. In kind it is cell-based. As to the method:
In Vitro Assay 4: Rescue of TNFα Production from Human Primary Monocytes
The ability of the substances to enhance immune cell activity was determined. The substances were tested for their capacity to reverse KA-induced inhibition of TNFα production by LPS-stimulated human monocytes. Human monocytes were purified by negative selection from donor PBMCs using Miltenyi beads and seeded at 2×10^5 cells/well in complete growth medium (RPMI 1640, 10% FCS). Monocytes were incubated with 10 ng/mL LPS (O127:B8, #L4516, Sigma) and 200 uM KA (#3375, Sigma) and substances were added at concentrations of 1 uM, 0.3 uM and 0.1 uM and cultured for 18 hours. LPS alone served as the positive control. TNFα production in the supernatant was measured by Meso Scale Discovery immunoassay and the ability of the substances to rescue TNFα production was calculated as a percentage of LPS stimulation and KA-induced inhibition and normalized to the donor-specific response with the reference AHR antagonist compound GNF-351 (Smith et al., J Pharmacol Exp Ther, 2011, 338(1):318-27).

SMILES strings stand for the structures. pIC50: −log10 of the molar value. Values joined by “and” are separate entries in the source; they are usually repeats but may differ in a detail not shown here. Identical values can stand only once. A value given as a limit tells only on which side of the number the result lay.

Usually pIC50 stands for −log10 of the IC50, conventionally taken in molar units. As for `O=C(NC[C@H](O)C(F)(F)F)c1cc(-c2ccc(OC(F)(F)F)cc2)nn(-c2cccnc2)c1=O` [Example 131, 3-Oxo-2-(pyridin-3-yl)-N-[(2S)-3,3,3-trifluoro-2-hydroxypropyl]-6-[4-(trifluoromethoxy)phenyl]-2,3-dihydropyridazine-4-carboxamide], the pIC50 is 8.14 on AHR [1], less than 4.70 on AHR [2] and 8.21 on AHR [3]. In addition, in the assay with B16F10-OVA cells [4], the T/C came to 1.05.
For `C[C@@H](CO)NC(=O)c1cc(-c2ccc(Cl)cc2)nn(-c2cnn(C)c2)c1=O` [Example 17, 6-(4-Chlorophenyl)-N-[(2S)-1-hydroxypropan-2-yl]-2-(1-methyl-1H-pyrazol-4-yl)-3-oxo-2,3-dihydropyridazine-4-carboxamide], the T/C in the assay on B16F10-OVA cells [4] was found to be 0.90; with B16F10-OVA cells [5], 0.92. In addition, in the assay with human monocytes (concentration (of 1, 0.3, 0.1 uM tested) at which highest TNFα rescue was observed), the “Individual Donors Conc of highest rescue” value was determined as 1 µM. Also, the “Individual Donors % rescue TNFα normalised to ref cmpd” value with human monocytes (human monocytes, 10 ng/mL LPS + 200 uM KA, 18 hours, highest percent rescue relative to highest rescue with GNF-351) was 438% and 296%.
